The record followed here is paper PMC4707132 (Journal of medicinal chemistry, 2015).

Assay [1] concerns the target T1, Mcl-1 (Homo sapiens, UniProt Q07820). In words: fluorescence polarization competition assay. It counts as binding.
The nature of another assay: in vitro cellular assay. It counts as cell-based.
Assay [2] has as its target T1, Mcl-1. In words: surface plasmon resonance. It counts as binding. (Surface plasmon resonance follows binding to a sensor surface in real time, without labels.)
Assay [3] addresses T1, Mcl-1. In words: bio-layer interferometry. It counts as binding. The settings on record: label-free BLI. For orientation: Biolayer interferometry detects binding as a change in optical thickness at a sensor tip.
Assay [4] has as its target T1, Mcl-1. Description: HSQC chemical shift mapping. It counts as binding.

T1 sequence (Q07820 whole entry): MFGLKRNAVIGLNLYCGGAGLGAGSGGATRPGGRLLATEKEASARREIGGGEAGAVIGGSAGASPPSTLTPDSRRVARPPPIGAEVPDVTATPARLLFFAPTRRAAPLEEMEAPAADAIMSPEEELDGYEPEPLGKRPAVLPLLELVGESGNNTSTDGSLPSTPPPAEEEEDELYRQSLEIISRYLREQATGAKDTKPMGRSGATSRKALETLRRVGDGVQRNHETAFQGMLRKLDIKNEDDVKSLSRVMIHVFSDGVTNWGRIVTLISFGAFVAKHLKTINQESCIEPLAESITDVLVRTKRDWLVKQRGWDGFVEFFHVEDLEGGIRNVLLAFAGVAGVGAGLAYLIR

Turning to `COc1cc(/C=C/C(=O)c2ccc(OC)c(OC)c2OC)cc(Cl)c1O` [Compound D1], the “potency of Mcl-1 inhibition relative to M0” value on Mcl-1 [1] was “about 7 fold”.

For the compound `COc1ccc(C(=O)/C=C/c2cc(F)c(O)c(Cl)c2)c(OC)c1OC` [Compound D2], the “biological effect in cells” value in the assay “in vitro cellular assay” is on record as “does not exert the desired biological effect”. Moreover, at Mcl-1 [1], the “potency of Mcl-1 inhibition relative to M0” value is “about 7 fold”.

In the case of `COc1ccc(C(=O)/C=C/c2cc(F)c(O)c(Cl)c2)cc1` [Compound D3], on Mcl-1 [1], the “activity relative to D1” value is “reduced activity” and the “potency relative to M0” value is recorded as “potency exceeding that of M0”.

On to `COc1ccc(C(=O)/C=C/c2cc(Cl)c(O)c(OC)c2)cc1` [Compound D4], for which the “potency relative to M0” value at Mcl-1 [1] is on record as “potency exceeding that of M0”.

`COc1ccc(C(=O)/C=C/c2ccc(O)c(F)c2)c(OC)c1OC` [Compound D5]: on Mcl-1 [1], the “activity relative to D1” value is recorded as “reduced activity” and the “potency relative to M0” value is given as “very similar inhibition constant as M0”.

As for `COc1cc(C(=O)/C=C/c2ccc(O)cc2)c(O)c(OC)c1OC` [Compound D7], the “potency relative to M0” value on Mcl-1 [1] was “less potent than M0”.

With `COc1ccc(/C=C/C(=O)c2cc(OC)c(OC)c(OC)c2O)cc1` [Compound D12], the “potency relative to M0” value at Mcl-1 [1] is given as “less potent than M0”.

As for `COc1cc(C(=O)/C=C/c2ccc(C(F)(F)F)cc2)c(O)c(OC)c1OC` [Compound D13], the “potency relative to M0” value at Mcl-1 [1] is on record as “less potent than M0”.

With `COc1cc(C(=O)/C=C/c2ccc([N+](=O)[O-])cc2)c(O)c(OC)c1OC` [Compound D14], the “potency relative to M0” value on Mcl-1 [1] was “less potent than M0”.

`COc1cc(O)c(C(=O)/C=C/c2ccc(O)c(OC)c2)c(OC)c1` [Compound M0, 2’,4-dihydroxy-3,4’,6’-trimethoxychalcone]: the SPR response result on Mcl-1 [2] is given as “did not exhibit super-stoichiometric behavior”. The “direct binding to Mcl-1” value on Mcl-1 [3] is on record as “confirmed the activity”. Further, the HSQC spectrum result at Mcl-1 [4] is “small number of distinct chemical shift differences”.

The Ki is a measure of affinity in units of concentration, obtained from inhibition or displacement. Low readings indicate tighter binding, high ones weaker binding. With `Cc1c(/C=N/N2C=Nc3c([nH]c4ccccc34)C2)c(=O)oc2c3c4c(cc12)CCCN4CCC3` [Compound M1], at Mcl-1 [3], the “direct binding to Mcl-1” value was “confirmed the activity”. Besides, the Ki on Mcl-1 [1] worked out at 1200 nM.

In the case of `C[C@@]12CC[C@@H]3[C@H](CCC4=CC(=O)CC[C@H]43)[C@H]1CC[C@H]2OC1(O)C(=O)c2ccccc2C1=O` [Compound M5], on Mcl-1 [3], the “direct binding to Mcl-1” value was “confirmed the activity”.

As for `c1cc2c(cc1[C@H]1OC[C@H]3[C@H]1CO[C@H]3c1ccc3c(c1)OCO3)OCO2` [Compound M7], the “direct binding to Mcl-1” value at Mcl-1 [3] is listed as “confirmed the activity”.
